One experiment concerns the target T1, β2 (Cavia porcellus, UniProt Q8K4Z4).
T1 construct: isolated guinea pig tracheal chains; from tissue; host or cells: isolated guinea pig tracheal chains
The experiment in a line: inhibition of isoproterenol-induced relaxation in isolated guinea pig tracheal chains contracted with PGF2α. The following applies: vs isoproterenol-induced relaxation, read-out: pA2 values β2 (trachea) (converted). As to the method:
(§1) The in vitro β-adrenergic blocking properties of the novel compounds of this invention were evaluated in accordance with standard procedures. The interaction with the β1 -receptor was determined via inhibition of the positive chronotropic actions of isoproterenol in isolated guinea pig atrial preparations. β2 potency was determined by using isolated guinea pig tracheal chains contracted with PGF2α and by measuring inhibition of isoproterenol-induced relaxation.

Experiment [1] has as its system β1 -receptor. Briefly: inhibition of the positive chronotropic actions of isoproterenol in isolated guinea pig atrial preparations. The note with it: β1 (atria) versus β2 (trachea), from pA2 values. As to the method: as §1
In experiment [2] the target is T2, β1 -receptor (Cavia porcellus, UniProt H0W3H1).
T2 construct: isolated guinea pig atrial preparations; from tissue; host or cells: isolated guinea pig atria
Described as above. The note with it: isolated guinea pig atria; vs isoproterenol positive chronotropic action; read-out: pA2 values β1 (atria) (converted). As to the method:
as §1

T2 sequence (H0W3H1 1-470): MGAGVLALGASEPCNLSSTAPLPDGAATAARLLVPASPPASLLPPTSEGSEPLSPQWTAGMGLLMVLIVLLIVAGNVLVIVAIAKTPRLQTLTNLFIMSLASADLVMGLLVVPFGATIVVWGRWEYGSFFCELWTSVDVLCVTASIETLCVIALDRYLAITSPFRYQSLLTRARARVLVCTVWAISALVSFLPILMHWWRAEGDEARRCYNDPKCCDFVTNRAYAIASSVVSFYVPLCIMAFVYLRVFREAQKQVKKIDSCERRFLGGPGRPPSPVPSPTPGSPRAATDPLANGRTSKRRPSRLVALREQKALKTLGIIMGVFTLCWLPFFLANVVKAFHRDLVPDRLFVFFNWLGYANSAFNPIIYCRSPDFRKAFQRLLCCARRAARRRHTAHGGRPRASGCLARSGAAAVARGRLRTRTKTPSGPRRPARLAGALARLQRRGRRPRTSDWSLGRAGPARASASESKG
T1 sequence (Q8K4Z4 whole entry): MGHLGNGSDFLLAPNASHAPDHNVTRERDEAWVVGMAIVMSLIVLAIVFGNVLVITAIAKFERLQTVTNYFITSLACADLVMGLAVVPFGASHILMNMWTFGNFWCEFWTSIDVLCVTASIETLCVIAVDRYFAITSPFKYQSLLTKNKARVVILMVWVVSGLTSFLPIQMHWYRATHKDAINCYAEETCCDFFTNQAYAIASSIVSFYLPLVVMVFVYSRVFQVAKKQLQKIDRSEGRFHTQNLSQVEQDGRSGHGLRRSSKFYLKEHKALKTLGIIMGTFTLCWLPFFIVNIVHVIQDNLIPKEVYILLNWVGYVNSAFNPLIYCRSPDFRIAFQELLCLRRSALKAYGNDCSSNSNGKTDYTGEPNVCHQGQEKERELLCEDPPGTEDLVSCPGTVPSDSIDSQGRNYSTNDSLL

For the compound `N#Cc1ccccc1OCC(O)CNCCN1CCNCC1` (stereo not shown), the Kb is 34700 nM on β2 and 34.7 nM on β1 -receptor [2]. Moreover, in the experiment with β1 -receptor [1], the Cardioselectivity ratio came out at 1000.
The corresponding values for `N#Cc1ccccc1OCC(O)CNCCN1CCOCC1` (stereo not shown) are 138 nM, 23.4 nM and 5.9.
In the same order, the values of `N#Cc1ccccc1OCC(O)CNCCc1cccnc1` (stereo not shown) are 89.1 nM, 15.5 nM and 5.8.
On to `N#Cc1ccccc1OCC(O)CNCCc1ccncc1` (stereo not shown), for which the Cardioselectivity ratio with β1 -receptor [1] amounted to 4.1.
For the compound `N#Cc1ccccc1OCC(O)CNCCc1ccccn1` (stereo not shown), the Kb at β2 is 64.6 nM; on β1 -receptor [2], 25.7 nM. In the experiment on β1 -receptor [1], the Cardioselectivity ratio turned out to be 2.5.

The values above are taken from US4883814A, “1-aryloxy-3-(substituted alkylamino)-2-propanols and use as β-blocker” (Merck & Co., Inc., priority 1988, dated 1989).
